Test results: PubChem BioAssay AID1996
Converted amounts (≈) assume the structure as drawn.

Settings: buffer; pH 7.4; 200.0 µM
With O=C(c1cc2ccccc2s1)N1CCN(c2ccccn2)CC1 the solubility kinetic was 8.9 µg/mL (≈ 27.5 µM). In the case of CC(C)N1CCN(Cc2ccc3nsnc3c2)CC1CCO (configuration not stated), the solubility kinetic is reported as greater than 48.1 µg/mL. O=C(NCc1ccccn1)Nc1ccccc1C(F)(F)F showed a solubility kinetic greater than 44.3 µg/mL. In the case of Nc1cc2c(cc1Cl)N(Cc1ccccc1)C(=O)CO2, the solubility kinetic is reported as greater than 43.3 µg/mL. Cc1ccc(CC(=O)Nc2ccc(Cl)cn2)cc1 gave a solubility kinetic of 8.4 µg/mL (≈ 32.2 µM). N#CC1(c2ccccc2)CCC(=O)N1Cc1ccccc1 (configuration not stated) gave a solubility kinetic greater than 41.5 µg/mL. CCNC(=O)COC(=O)c1[nH]c(C)c(C(=O)OC)c1C gave a solubility kinetic greater than 42.3 µg/mL. CCCCCC(=O)OC(CN1CCCC1=O)C[NH+]1CCCCCC1.[Cl-] (configuration not stated) showed a solubility kinetic greater than 56.2 µg/mL. Compound Cc1nc(NC(=O)c2ccncc2)sc1C(=O)N(C)C has a solubility kinetic greater than 43.6 µg/mL. For Cc1ccc2[nH]c(=O)c(CN(C(=O)c3cccc([N+](=O)[O-])c3)C(C)(C)C)cc2c1, the solubility kinetic was 2.9 µg/mL (≈ 7.37 µM). Compound C#CC[N+]1(C)C2CCC1CC(O)C2.[Br-] (configuration not stated) has a solubility kinetic of 33.7 µg/mL. Work on CC1=C(C(=O)OC(C)C)C(c2ccccc2)NC(=O)N1C (configuration not stated) yielded a solubility kinetic greater than 43.3 µg/mL. With C=CCN(C(=O)c1ccccc1)C1CCS(=O)(=O)C1 (configuration not stated) the solubility kinetic was 37.4 µg/mL (≈ 134 µM). COc1cc2ccccc2cc1C(=O)N1CCCC1 gave a solubility kinetic greater than 38.3 µg/mL. Work on O=C(CSc1nncs1)Nc1ccc2c(c1)OCO2 yielded a solubility kinetic greater than 44.3 µg/mL. For Cc1csc(SCC(=O)NC(C)c2ccccc2)n1 (configuration not stated), the solubility kinetic was greater than 43.9 µg/mL. Work on CCc1nc2ccc(C(=O)Nc3ccc4c(c3)OCO4)cc2nc1CC yielded a solubility kinetic of 1.6 µg/mL (≈ 4.58 µM). Compound COc1ccc(Cl)cc1NC(=O)COC(=O)C1CCCCC1 has a solubility kinetic of 3.2 µg/mL (≈ 9.82 µM). COc1ccccc1/C=C/C(=O)Nc1cccnc1Cl showed a solubility kinetic of 2.7 µg/mL (≈ 9.35 µM). C[N+]1(C)C2CCC1CC(OC(=O)c1ccccc1)C2.[Br-] (configuration not stated) gave a solubility kinetic greater than 51 µg/mL. COc1ccccc1C(C)NCC(=O)NCc1ccc(C)cc1 (configuration not stated) showed a solubility kinetic greater than 46.9 µg/mL. For Cc1cc(C(=O)NC(C)C2CCCO2)c(C)o1 (configuration not stated), the solubility kinetic was greater than 35.6 µg/mL. With C[n+]1c(-c2ccccc2)sc([S-])c1-c1ccccc1 the solubility kinetic was 36 µg/mL (≈ 127 µM). COC(=O)C1CCCN1S(=O)(=O)c1ccc([N+](=O)[O-])cc1 (configuration not stated) showed a solubility kinetic greater than 47.1 µg/mL. In the case of Cc1ccc2nc(-c3ccncc3)[nH]c2c1, the solubility kinetic is reported as 28.1 µg/mL (≈ 134 µM). Work on Nc1cncc(C(=O)O)c1 yielded a solubility kinetic greater than 20.7 µg/mL. Work on Cc1onc(-c2c(F)cccc2Cl)c1C(=O)NCCN1CCNC1=O yielded a solubility kinetic greater than 55 µg/mL. With CSc1ccccc1NC(=O)c1ccccc1 the solubility kinetic was 28.8 µg/mL (≈ 118 µM). CN1CCCN(C(=O)CNC(=O)c2ccc(Cl)cc2Cl)CC1 gave a solubility kinetic of 50.8 µg/mL (≈ 148 µM). Work on CC(=O)N1CCc2[nH]c3ccc(C)cc3c2C1 yielded a solubility kinetic greater than 34.2 µg/mL. Work on Clc1ccc2oc(SCc3cccnc3)nc2c1 yielded a solubility kinetic of 3.5 µg/mL (≈ 12.6 µM). For COc1cc(OC)cc(C(=O)NCC(=O)OCC(=O)NCc2ccco2)c1, the solubility kinetic was greater than 56.5 µg/mL. O=C(CCC(=O)c1ccc(Br)cc1)Nc1ccc(F)cc1 gave a solubility kinetic of less than 0.7 µg/mL. With CC1CCCCN1C(=O)CNCC1CCCO1.O=C(O)C(=O)O (configuration not stated) the solubility kinetic was greater than 49.6 µg/mL. For CC(C)(C)C(=O)NC1CCSC1=O (configuration not stated), the solubility kinetic was greater than 30.2 µg/mL. For Cn1c(O)c(C=Nc2ccc(Br)cc2)sc1=O, the solubility kinetic was less than 0.3 µg/mL. Work on COCCCNC(=S)N1CCC(NC(=O)c2ccco2)CC1 yielded a solubility kinetic greater than 48.8 µg/mL. Compound CC(=O)NCCc1nc2ccccc2n1CCOc1ccc(C)cc1 has a solubility kinetic greater than 50.6 µg/mL. Work on CCN(CC)C(=N)/C(C#N)=N/Nc1ccccc1 yielded a solubility kinetic greater than 36.5 µg/mL. O=S(=O)(Nc1cccc2ccccc12)c1ccccc1F gave a solubility kinetic of 1.5 µg/mL (≈ 4.98 µM). Cc1ccc(S(=O)(=O)n2c(C)nc3ccccc32)cc1 showed a solubility kinetic of 2.2 µg/mL (≈ 7.68 µM). Compound COc1ccc(S(=O)(=O)n2c([N+](=O)[O-])cnc2C)cc1OC has a solubility kinetic greater than 49.1 µg/mL. With Cc1cc(NC(=O)COc2ccc3ccccc3c2Br)no1 the solubility kinetic was 14.4 µg/mL (≈ 39.9 µM). With Cc1nc(-c2ccccn2)sc1C(=O)O the solubility kinetic was greater than 33 µg/mL. With CCCC(=O)NC(=S)Nc1cccc(Cl)c1N1CCCC1 the solubility kinetic was 0.5 µg/mL (≈ 1.53 µM). Work on Cc1ccc(C(=O)OCc2nc3ccsc3c(=O)[nH]2)o1 yielded a solubility kinetic greater than 43.5 µg/mL. Cc1cc(Nc2cccc(Cl)c2)nc(-c2ccccc2O)n1 showed a solubility kinetic of 0.6 µg/mL (≈ 1.92 µM). With Cc1cc(=O)[nH]c(SCC(=O)N2CC3(C)CC2CC(C)(C)C3)n1 (configuration not stated) the solubility kinetic was greater than 50.3 µg/mL. With CCN1CCN(c2ccc(NC(=O)c3cnccn3)cc2)CC1 the solubility kinetic was greater than 46.7 µg/mL. Compound CC(=O)c1sc(NCc2ccccc2)nc1C has a solubility kinetic of 31.8 µg/mL (≈ 129 µM). In the case of Clc1nc(NC2CCCC2)nc(N2CCOCC2)n1, the solubility kinetic is reported as 5.1 µg/mL (≈ 18 µM). CN1C(=O)C(=Cc2cccnc2)C(=O)N(C)C1=O showed a solubility kinetic of 32.3 µg/mL (≈ 132 µM). Work on CCCCN(Cc1ccccc1)C1CCN(Cc2ccccc2)CC1 yielded a solubility kinetic of 27.3 µg/mL (≈ 81.1 µM). For O=C(COc1ccccc1)Nc1ccc(NC(=O)c2ccco2)cc1, the solubility kinetic was 2.6 µg/mL (≈ 7.73 µM). Compound C#CC1(OC(=O)c2ccccc2)CC(C)N(C)CC1C.Cl (configuration not stated) has a solubility kinetic greater than 46.2 µg/mL. For Clc1ccc(OCCCCCN2CCOCC2)cc1, the solubility kinetic was 26.6 µg/mL (≈ 93.7 µM). In the case of COc1cc(Cl)c(S(=O)(=O)N2CCCC2)cc1Cl, the solubility kinetic is reported as 42.1 µg/mL (≈ 136 µM). CCOC(=O)c1c(C=O)c2sc(C)cc2n1C showed a solubility kinetic of 1.5 µg/mL (≈ 5.97 µM). Work on COc1ccc(OCC(=O)NC2CCCCCCC2)cc1 yielded a solubility kinetic of 37.7 µg/mL (≈ 129 µM). For CCN1CCN(CCC(=O)Nc2cc(C)ccc2C)CC1, the solubility kinetic was greater than 43.4 µg/mL. With O=C(Cc1ccccc1Cl)NCc1cccnc1 the solubility kinetic was greater than 39.1 µg/mL. With Cl.O=c1cc(CN2CCNCC2)nc2sccn12 the solubility kinetic was 44 µg/mL.
